# From patent US10738053B2, “Bicyclic compounds as dual ATX/CA inhibitors” (Hoffmann-La Roche Inc., priority 2015, dated 2020)
# Experiments:
# human ATX = human ATX (Homo sapiens (Human), UniProt Q13822); assay: Human ATX enzyme inhibition assay (fluorescence quenching, MR121 substrate); type: biochemical; details: human His-tagged ATX 30 nM, MR121 substrate 1 μM
# Experimental: Production of Human Full Length ATX, with and without His Tag
# Autotaxin (ATX-ENPP2) cloning: cDNA was prepared from commercial human hematopoietic cells total RNA and used as template in overlapping PCR to generate a full length human ENPP2 ORF with or without a 3′-6× His tag. These full length inserts were cloned into the pcDNA3.1V5-His TOPO (Invitrogen) vector. The DNA sequences of several single clones were verified. The DNA from a correct full length clone was used to transfect Hek293 cells for verification of protein expression. The sequence of the encoded ENPP2 conforms to Swissprot entry Q13822, with or without the additional C-terminal 6× His tag.
# ATX Fermentation: Recombinant protein was produced by large-scale transient transfection in 20 L controlled stirred tank bioreactors (Sartorius). During cell growth and transfection, temperature, stirrer speed, pH and dissolved oxygen concentration were maintained at 37° C., 120 rpm, 7.1 and 30% DO, respectively. FreeStyle 293-F cells (Invitrogen) were cultivated in suspension in FreeStyle 293 medium (Invitrogen) and transfected at ca. 1-1.5×10E6 cells/mL with above plasmid DNAs using X-tremeGENE Ro-1539 (commercial product, Roche Diagnostics) as complexing agent. Cells were fed a concentrated nutrient solution (J Immunol Methods 194 (1996), 19, 1-199 (page 193)) and induced by sodium butyrate (2 mM) at 72 h post-transfection and harvested at 96 h post-transfection. Expression was analyzed by Western Blot, enzymatic assay and/or analytical IMAC chromatography. After cooling the cell suspension to 4° C. in a flow-through heat exchanger, cell separation and sterile filtration of supernatant was performed by filtration through Zeta Plus 60M02 E16 (Cuno) and Sartopore 2 XLG (Sartorius) filter units. The supernatant was stored at 4° C. prior to purification.
# ATX Purification: 20 liter of culture supernatant were conditioned for ultrafiltration by adding Brij 35 to a final concentration of 0.02% and by adjusting the pH to 7.0 using 1 M HCl. Then the supernatant was first microfiltred through a 0.2 µm Ultran-Pilot Open Channel PES filter (Whatman) and afterwards concentrated to 1 liter through an Ultran-Pilot Screen Channel PES filter with 30 kDa MWCO (Whatman). Prior to IMAC chromatography, NiSO4 was added to a final concentration of 1 mM. […] The column was washed stepwise with the same buffer containing 20 mM, 40 mM and 50 mM imidazole, respectively. The protein was subsequently eluted using a linear gradient to 0.5 M imidazole in 15 column volumes. ATX containing fractions were pooled and concentrated using an Amicon cell equipped with a 30 kDa PES filter membrane. […] Final yield of protein after purification was 5-10 mg ATX per liter of culture supernatant. The protein was stored at −80° C.
# Human ATX Enzyme Inhibition Assay
# Test compounds (10 mM stock in DMSO, 8 μL) were obtained in 384 well sample plates (Corning Costar #3655) and diluted with 8 μL DMSO. […] Then, 15 μL of 41.7 nM ATX solution was added (30 nM final concentration), mixed five times and then incubated for 15 minutes at 30° C. 10 μL of MR121 substrate solution was added (1 μM final concentration), mixed 30 times and then incubated for 15 minutes at 30° C.
# [1] = target: Human carbonic anhydrase II (hCA-II) (Homo sapiens (Human), UniProt P00918); assay: Human carbonic anhydrase-II inhibition assay (absorbance, 4-NPA substrate); type: biochemical; details: hCA II 8 nM, 4-NPA 2.5 mM, absorbance 340 nm; read-out: CA-II IC50
# Experimental: Human Carbonic Anhydrase-II Inhibition Assay
# Then 30 μL of 16 nM hCA II solution was added (8 nM final concentration), mixed five times. 30 μL of 4-NPA substrate solution was added (2.5 mM final concentration), mixed five times.
smiles,measurement,setting,value
"CO[C@@]12CN(C(=O)OCc3ncc(C(F)(F)F)cc3NC(=O)C(C)(C)C)C[C@H]1CN(C(=O)c1ccc(S(N)(=O)=O)cc1)C2 (single isomer, unassigned) [Example 4.03, (−) trans-5-(4-sulfamoyl-benzoyl)-3a-methoxy-hexahydro-pyrrolo[3,4-c]pyrrole-2-carboxylic acid 3-(2,2-dimethyl-propionylamino)-5-trifluoromethyl-pyridin-2-ylmethyl ester]",IC50,human ATX,11 nM
same,IC50,[1],13 nM
"NS(=O)(=O)c1ccc(C(=O)N2C[C@H]3CN(C(=O)OCc4ccc(OC(F)(F)F)cc4)C[C@]3(F)C2)c(F)c1 (relative stereo) [Example 2.00, trans-5-(2-Fluoro-4-sulfamoyl-benzoyl)-3a-fluoro-hexahydro-pyrrolo[3,4-c]pyrrole-2-carboxylic acid 4-trifluoromethoxy-benzyl ester]",IC50,human ATX,7 nM
same,IC50,[1],6 nM
"CO[C@]12CN(C(=O)OCc3ncc(C(F)(F)F)cc3NC(=O)C(C)(C)C)C[C@@H]1CN(C(=O)c1ccc(S(N)(=O)=O)cc1)C2 (racemic) [Example 1.03, trans-5-(4-sulfamoyl-benzoyl)-3a-methoxy-hexahydro-pyrrolo[3,4-c]pyrrole-2-carboxylic acid 3-(2,2-dimethyl-propionylamino)-5-trifluoromethyl-pyridin-2-ylmethyl ester]",IC50,human ATX,6 nM
"CO[C@@]12CN(C(=O)c3cc(OCC4CCOCC4)nc(C4CC4)c3)C[C@H]1CN(C(=O)c1ccc(S(N)(=O)=O)cn1)C2 (relative stereo) [Example 1.09, trans-6-[5-[2-cyclopropyl-6-(oxan-4-ylmethoxy)pyridine-4-carbonyl]-3a-methoxy-3,4,6,6a-tetrahydro-1H-pyrrolo[3,4-c]pyrrole-2-carbonyl]pyridine-3-sulfonamide]",IC50,human ATX,10 nM
same,IC50,[1],10 nM
"NS(=O)(=O)c1ccc(C(=O)N2C[C@@H]3CN(C(=O)OCc4ccc(OC(F)(F)F)cc4)C[C@@]3(F)C2)cc1 (single isomer, unassigned) [Example 5.02, (+)-trans-5-(4-sulfamoyl-benzoyl)-3a-fluoro-hexahydro-pyrrolo[3,4-c]pyrrole-2-carboxylic acid 4-trifluoromethoxy-benzyl ester]",IC50,human ATX,4 nM
same,IC50,[1],15 nM
"CO[C@]12CN(C(=O)OCc3ncc(C(F)(F)F)cc3NC(=O)C(C)(C)C)C[C@@H]1CN(C(=O)c1ccc(S(N)(=O)=O)cc1F)C2 (racemic) [Example 1.00, trans-5-(2-Fluoro-4-sulfamoyl-benzoyl)-3a-methoxy-hexahydro-pyrrolo[3,4-c]pyrrole-2-carboxylic acid 3-(2,2-dimethyl-propionylamino)-5-trifluoromethyl-pyridin-2-ylmethyl ester]",IC50,human ATX,8 nM
same,IC50,[1],5 nM
"CO[C@]12CN(C(=O)CCc3ccc(OC(F)(F)F)cc3)C[C@@H]1CN(C(=O)c1ccc(S(N)(=O)=O)cn1)C2 (relative stereo) [Example 1.08, trans-6-[3a-methoxy-2-[3-[4-(trifluoromethoxy)phenyl]propanoyl]-3,4,6,6a-tetrahydro-1H-pyrrolo[3,4-c]pyrrole-5-carbonyl]pyridine-3-sulfonamide]",IC50,human ATX,17 nM
same,IC50,[1],18 nM
"CO[C@@]12CN(C(=O)OCc3ccc(OC(F)(F)F)cc3)C[C@H]1CN(C(=O)c1ccc(S(N)(=O)=O)cc1)C2 (single isomer, unassigned) [Example 5.01, (+)-trans-5-(4-sulfamoyl-benzoyl)-3a-methoxy-hexahydro-pyrrolo[3,4-c]pyrrole-2-carboxylic acid 4-trifluoromethoxy-benzyl ester]",IC50,human ATX,6 nM
same,IC50,[1],27 nM
"CO[C@]12CN(C(=O)OCc3ccc(OC(F)(F)F)cc3)C[C@@H]1CN(C(=O)c1ccc(S(N)(=O)=O)cc1)C2 (racemic) [Example 1.05, trans-5-(4-sulfamoyl-benzoyl)-3a-methoxy-hexahydro-pyrrolo[3,4-c]pyrrole-2-carboxylic acid 4-trifluoromethoxy-benzyl ester]",IC50,human ATX,20 nM
"CO[C@]12CN(C(=O)CCc3ccc(OC(F)(F)F)cc3)C[C@@H]1CN(C(=O)c1ccc(S(N)(=O)=O)cc1F)C2 (relative stereo) [Example 1.01, trans-4-[3a-methoxy-2-[3-[4-(trifluoromethoxy)phenyl]propanoyl]-3,4,6,6a-tetrahydro-1H-pyrrolo[3,4-c]pyrrole-5-carbonyl]-3-fluorobenzenesulfonamide]",IC50,human ATX,10 nM
same,IC50,[1],8 nM
"CO[C@]12CN(C(=O)OCc3ncc(C(F)(F)F)cc3NC(=O)C(C)(C)C)C[C@@H]1CN(C(=O)c1ccc(S(N)(=O)=O)cn1)C2 (relative stereo) [Example 1.07, trans-5-(5-sulfamoylpyridine-2-carbonyl)-3a-methoxy-hexahydro-pyrrolo[3,4-c]pyrrole-2-carboxylic acid 3-(2,2-dimethyl-propionylamino)-5-trifluoromethyl-pyridin-2-ylmethyl ester]",IC50,human ATX,6 nM
same,IC50,[1],13 nM
"NS(=O)(=O)c1ccc(C(=O)N2C[C@H]3CN(C(=O)OCc4ccc(OC(F)(F)F)cc4)C[C@]3(F)C2)cc1 (racemic) [Example 1.04, trans-5-(4-sulfamoyl-benzoyl)-3a-fluoro-hexahydro-pyrrolo[3,4-c]pyrrole-2-carboxylic acid 4-trifluoromethoxy-benzyl ester]",IC50,human ATX,3 nM
"NS(=O)(=O)c1ccc(C(=O)N2C[C@@H]3CN(C(=O)c4cc(OCC5CCOCC5)nc(C5CC5)c4)C[C@@]3(F)C2)c(F)c1 (relative stereo) [Example 3.02, trans-4-[5-[2-cyclopropyl-6-(oxan-4-ylmethoxy)pyridine-4-carbonyl]-3a-fluoro-3,4,6,6a-tetrahydro-1H-pyrrolo[3,4-c]pyrrole-2-carbonyl]-3-fluorobenzenesulfonamide]",IC50,human ATX,8 nM
same,IC50,[1],6 nM
"CO[C@@]12CN(C(=O)OCc3ccc(OC(F)(F)F)cc3)C[C@H]1CN(C(=O)c1ccc(S(N)(=O)=O)cc1)C2 (single isomer, unassigned) [Example 4.01, (−)-trans-5-(4-sulfamoyl-benzoyl)-3a-methoxy-hexahydro-pyrrolo[3,4-c]pyrrole-2-carboxylic acid 4-trifluoromethoxy-benzyl ester]",IC50,human ATX,13 nM
same,IC50,[1],18 nM
"C[C@@]12CN(C(=O)OCc3ccc(OC(F)(F)F)cc3)C[C@H]1CN(C(=O)c1ccc(S(N)(=O)=O)cc1)C2 [Example 4.00, (+)-(3aR,6aR)-3a-Methyl-5-(4-sulfamoyl-benzoyl)-hexahydro-pyrrolo[3,4-c]pyrrole-2-carboxylic acid 4-trifluoromethoxy-benzyl ester]",IC50,human ATX,6 nM
same,IC50,[1],95 nM
"NS(=O)(=O)c1ccc(C(=O)N2C[C@H]3CN(C(=O)/C=C/c4ccc(OC(F)(F)F)cc4)C[C@]3(F)C2)c(F)c1 (relative stereo) [Example 3.00, trans-4-[3a-Fluoro-2-[(E)-3-[4-(trifluoromethoxy)phenyl]prop-2-enoyl]-3,4,6,6a-tetrahydro-1H-pyrrolo[3,4-c]pyrrole-5-carbonyl]-3-fluorobenzenesulfonamide]",IC50,human ATX,5 nM
same,IC50,[1],9 nM
"C[C@]12CN(C(=O)OCc3ccc(OC(F)(F)F)cc3)C[C@@H]1CN(C(=O)c1ccc(S(N)(=O)=O)cc1)C2 (racemic) [Example 1.06, trans-3a-methyl-5-(4-sulfamoyl-benzoyl)-hexahydro-pyrrolo[3,4-c]pyrrole-2-carboxylic acid 4-trifluoromethoxy-benzyl ester]",IC50,human ATX,6 nM
